{
  "source": "patent US20230119013A1",
  "about": "“N-CYANOPYRROLIDINES WITH ACTIVITY AS USP30 INHIBITORS” (MISSION THERAPEUTICS LIMITED, priority 2020, published 2023)",
  "key": {"[1]": {"system": "UCHL1, USP1, USP2, USP6, USP9x, USP10, USP15, USP16, USP20, USP21, USP22, USP25, USP28, USP35, USP36, USP46/UAF1", "experiment": "DUB biochemical IC50 assays (off-target panel)"}, "[2]": {"system": "USP2, USP10, USP16, USP21, USP22, USP25, USP28", "experiment": "DUB IC50, seven DUBs", "format": "biochemical", "conditions": "range over the seven DUBs"}, "[3]": {"system": "T1, USP2, USP10, USP16, USP21, USP22, USP25, USP28", "T1 construct": "DUB IC50 (μM) USP2, USP10, USP16, USP21, USP22, USP25, USP28; other: range over the seven DUBs", "experiment": "DUB IC50, seven DUBs", "format": "biochemical", "conditions": "range over the seven DUBs"}, "[4]": {"target": "Cathepsin B (Homo sapiens, UniProt P07858)", "experiment": "Cathepsin IC50, Cathepsin B", "format": "biochemical"}, "[5]": {"target": "Cathepsin V (Homo sapiens, UniProt O60911)", "sequence (O60911 114-334, species assumed)": "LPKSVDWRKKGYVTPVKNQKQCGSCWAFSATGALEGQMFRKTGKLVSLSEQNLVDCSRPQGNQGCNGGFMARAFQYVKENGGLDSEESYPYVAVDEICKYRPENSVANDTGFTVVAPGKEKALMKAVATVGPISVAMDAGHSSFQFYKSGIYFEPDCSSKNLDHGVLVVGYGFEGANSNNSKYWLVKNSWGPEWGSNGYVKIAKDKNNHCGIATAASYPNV", "experiment": "Cathepsin IC50, Cathepsin V", "format": "biochemical"}, "[6]": {"system": "cathepsins B, K, L, S and V", "experiment": "Cathepsin IC50, summary over B, K, L, S, V", "format": "biochemical", "conditions": "K, L; for fold more potent against USP30 than against each of the cathepsins, at a minimum: cathepsins B, S and V; for Selectivity preference for USP30 v cathepsins: range over cathepsins B, S"}, "[7]": {"system": "T2, cathepsins B, K, L, S and V", "T2 construct": "Cathepsin IC50 (μM) B, K, L, S, V; other: range over the five cathepsins", "experiment": "Cathepsin IC50, summary over B, K, L, S, V", "format": "biochemical", "conditions": "range over the five cathepsins"}, "[8]": {"system": "Salmonella typhimurium strains TA98, TA100, TA1535 and TA97a and the Escherichia Coli strain WP2 uvrA pKM101", "experiment": "Bacterial reverse mutation assay (Ames)", "format": "cell-based", "conditions": "up to 1000 μg/well (5000 μg/plate), with and without metabolic activation", "procedure": "The bacterial reverse mutation assay (Ames Test) may be used to evaluate the mutagenic properties of compounds of the invention, commonly by using the bacterial strain Salmonella typhimurium, which is mutant for the biosynthesis of the amino acid histidine.\nExample 1 was assessed in the bacterial reverse mutation assay (Ames) and in vitro micronucleus assay. All in vitro tests were conducted with and without exogenous metabolic activation using concentrations up to those limited by cytotoxicity or insolubility.\nExample 2 was assessed in the bacterial reverse mutation assay (Ames). All in vitro tests were conducted with and without exogenous metabolic activation using concentrations up to those limited by cytotoxicity or insolubility."}, "[9]": {"experiment": "Turbidimetric solubility", "format": "physicochemical", "conditions": "aqueous buffer, kinetic from dmso stock", "source_text": "(§1) log P: partition coefficient; lipophilicity measurement. log D: distribution co-efficient; lipophilicity measurement. TPSA: topological polar surface area. Turbidimetric solubility: Test compound solution prepared in DMSO diluted into aqueous buffer. Turbidimetry is used as the end-point by measuring absorbance at 620 nm. FaSSIF: simulated intestinal fluid in fasted state measured at pH 6.5. Hep Cl mouse: in vitro hepatocyte clearance in mouse cells. Hep Cl human: in vitro hepatocyte clearance in human cells. Plasma fu,p: The free fraction of a compound in plasma preparation determined by in vitro equilibrium dialysis. It is understood that only unbound (free) compound is capable of engaging with the target. Brain fu,br: The free fraction of a compound in brain homogenate preparation determined by in vitro equilibrium dialysis. It is understood that only unbound (free) compound is capable of engaging with the target. Clu: in vitro clearance. Clu as defined here is the scaled clearance, in turn calculated from the intrinsic clearance. The intrinsic clearance is the predicted clearance due to hepatic metabolic reactions, determined from incubation of a compound in a hepatocyte preparation. […] Cl in vivo clearance: Pharmacokinetic measurement of the volume of plasma (or any matrix) from which a substance is completely removed per unit time."}, "[10]": {"system": "hepatocyte", "experiment": "Hepatocyte clearance mouse", "format": "in vitro ADME", "conditions": "mouse hepatocytes", "source_text": "as §1"}, "[11]": {"system": "hepatocyte", "experiment": "Hepatocyte clearance human", "format": "in vitro ADME", "conditions": "human hepatocytes", "source_text": "as §1"}, "[12]": {"experiment": "Mouse plasma stability", "format": "in vitro ADME", "conditions": "read-out: Stability Mouse plasma t1/2"}, "[13]": {"experiment": "Plasma free fraction by equilibrium dialysis", "format": "in vitro ADME", "conditions": "mouse plasma; read-out: Binding Mouse Plasma fu, p", "source_text": "as §1"}, "[14]": {"experiment": "Brain homogenate free fraction by equilibrium dialysis", "format": "in vitro ADME", "conditions": "mouse brain homogenate; read-out: Binding Mouse Brain fu, br", "source_text": "as §1"}, "[15]": {"experiment": "PK mouse", "format": "in vivo", "conditions": "for Unbound plasma Cmax/TOM20-Ub cell potency: 10 mg/kg PO dose - mouse; for bioavailability: po, 10 mg/kg, read-out: PK mouse Oral F (%); for bioavailability / clearance: mouse", "source_text": "as §1\nMDR1-MDCK (Madin-Darby Canine Kidney cell monolayer) (in vitro) flux assay. Cell TE WB: USP30 endogenous cellular target engagement western blot (WB) assay. Assays the activity of compounds against USP30 in cells using an irreversible activity probe to monitor USP30 activity. TE ex vivo: USP30 kidney tissue target engagement assay. Kp u,u is the ratio of unbound drug in brain to unbound drug in plasma and may be indicative of potential for treating peripheral and/or CNS indications."}, "[16]": {"conditions": "whole blood, 2 mg/kg iv, read-out: PK mouse Cl blood"}},
  "note": "Like-named read-outs stand apart in the source and are kept apart here.",
  "data": [
    {"smiles": "COC[C@@H]1C[C@@H](NC(=O)c2ncc(-c3cccc(OC(F)(F)F)c3)o2)CN1C#N", "note": "[Example 1, N-((3R,5S)-1-Cyano-5-(methoxymethyl)pyrrolidin-3-yl)-5-(3-(trifluoromethoxy)phenyl)oxazole-2-carboxamide]", "values": [
      {"measurement": "more selective for USP30 over DUB panel", "setting": "[1]; v the 16 DUBs of the 9th table", "result": "(≥880 × more selective"},
      {"measurement": "DUB selectivity preference for USP30 v 7 DUBs", "setting": "[2]", "result": "880-14380"},
      {"measurement": "IC50", "setting": "[3]", "result": "4.4 to 71.9", "unit": "µM"},
      {"measurement": "IC50", "setting": "[4]", "result": 44.3, "unit": "µM"},
      {"measurement": "IC50", "setting": "[5]", "result": 132, "unit": "µM"},
      {"measurement": "fold more potent against USP30 than against each of the cathepsins, at a minimum", "setting": "[6]", "result": "≥ 3300", "unit": "fold"},
      {"measurement": "Selectivity preference for USP30 v cathepsins", "setting": "[6]", "result": "3300-31600"},
      {"measurement": "IC50", "setting": "[7]", "result": "16.5 to 158", "unit": "µM"},
      {"measurement": "induction of mutations, reverse mutation assay", "setting": "[8]; TA98, TA100, TA1535, TA97a and E. coli WP2 uvrA pKM101", "result": "did not induce mutations"},
      {"measurement": "solubility", "setting": "[9]", "result": "> 100", "unit": "µM"},
      {"measurement": "Hepatocyte Cl mouse scaled Clu", "setting": "[10]", "result": 84.7, "unit": "mL/min/kg"},
      {"measurement": "Hepatocyte Cl human scaled Clu", "setting": "[11]", "result": 5.6, "unit": "mL/min/kg"},
      {"measurement": "half-life", "setting": "[12]", "result": 11, "unit": "h"},
      {"measurement": "fraction unbound", "setting": "[13]", "result": 0.06},
      {"measurement": "fraction unbound", "setting": "[14]", "result": 0.043},
      {"measurement": "Kp uu", "setting": "[15]; 2 mg/kg IV dose - mouse, unbound brain to unbound plasma", "result": 0.21},
      {"measurement": "Unbound plasma Cmax/TOM20-Ub cell potency", "setting": "[15]", "result": "25-fold"},
      {"measurement": "bioavailability", "setting": "[15]; plasma", "result": 59, "unit": "%"},
      {"measurement": "clearance", "setting": "[15]; plasma, IV, read-out: IV plasma clearance", "result": 20, "unit": "mL/min/kg"},
      {"measurement": "clearance", "setting": "[15]; [16]", "result": 20, "unit": "mL/min/kg"}
    ]},
    {"smiles": "C[C@@H]1C[C@@H](NC(=O)c2ncc(-c3cccc(OC(F)(F)F)c3)o2)CN1C#N", "note": "[Example 2, N-((3R,5R)-1-Cyano-5-methylpyrrolidin-3-yl)-5-(3-(trifluoromethoxy)phenyl)oxazole-2-carboxamide]", "values": [
      {"measurement": "more selective for USP30 over DUB panel", "setting": "[1]; v the 14 DUBs of the 10th table", "result": "(≥940 × more selective"},
      {"measurement": "DUB selectivity preference for USP30 v 7 DUBs", "setting": "[2]", "result": "940->20000"},
      {"measurement": "IC50", "setting": "[3]", "result": "≥ 4.7", "unit": "µM"},
      {"measurement": "IC50", "setting": "[4]", "result": "> 30", "unit": "µM"},
      {"measurement": "IC50", "setting": "[5]", "result": "> 30", "unit": "µM"},
      {"measurement": "fold more potent against USP30 than against each of the cathepsins, at a minimum", "setting": "[6]", "result": "≥ 1700", "unit": "fold"},
      {"measurement": "Selectivity preference for USP30 v cathepsins", "setting": "[6]", "result": "1700-6000"},
      {"measurement": "IC50", "setting": "[7]", "result": "≥ 8.5", "unit": "µM"},
      {"measurement": "induction of mutations, reverse mutation assay", "setting": "[8]; TA98 and TA100", "result": "did not induce mutations"},
      {"measurement": "solubility", "setting": "[9]", "result": "> 100", "unit": "µM"},
      {"measurement": "Hepatocyte Cl mouse scaled Clu", "setting": "[10]", "result": 130.6, "unit": "mL/min/kg"},
      {"measurement": "Hepatocyte Cl human scaled Clu", "setting": "[11]", "result": 11.2, "unit": "mL/min/kg"},
      {"measurement": "half-life", "setting": "[12]", "result": 7, "unit": "h"},
      {"measurement": "fraction unbound", "setting": "[13]", "result": 0.05},
      {"measurement": "fraction unbound", "setting": "[14]", "result": 0.028},
      {"measurement": "Unbound plasma Cmax/TOM20-Ub cell potency", "setting": "[15]", "result": "7-fold"},
      {"measurement": "bioavailability", "setting": "[15]; in vivo", "result": 36, "unit": "%"},
      {"measurement": "clearance", "setting": "[15]; [16]", "result": 58, "unit": "mL/min/kg"}
    ]}
  ]
}
